Test results taken from patent US5672715A, “Herbicidal substituted 3-aryl-pyrazoles” (Monsanto Company, priority 1995, dated 1997).

Columns and labels:
Type in all cases: in vivo
[1] = system: Barnyardgrass; assay: pre-emergence herbicide test; settings: Echinochloa crus-galli, pre-emergence, 0.25 lb/A; read-out: % plant inhibition
In short: (§1)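 Greenhouse pan assay in which seeds lie under a treated topsoil cover; carrier was acetone or water. Inhibition (%) was recorded about 14 days post-treatment.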

[2] = system: Bedstraw Catchweed; assay: pre-emergence herbicide test; settings: Galium aparine, pre-emergence, 0.25 lb/A; read-out: % plant inhibition
In short: as §1

[3] = system: Birdseye Speedwell; assay: pre-emergence herbicide test; settings: pre-emergence, 0.25 lb/A; read-out: % plant inhibition
In short: as §1

[4] = system: Blackgrass; assay: pre-emergence herbicide test; settings: Alopecurus myosuroides, pre-emergence, 0.25 lb/A; read-out: % plant inhibition
In short: as §1

[5] = system: Cocklebur; assay: pre-emergence herbicide test; settings: Xanthium strumarium, pre-emergence, 0.25 lb/A; read-out: % plant inhibition
In short: as §1

[6] = system: Common Chickweed; assay: pre-emergence herbicide test; settings: pre-emergence, 0.25 lb/A; read-out: % plant inhibition
In short: as §1

[7] = system: Corn; assay: pre-emergence herbicide test; settings: Zea mays, pre-emergence, 0.25 lb/A; read-out: % plant inhibition
In short: as §1

[8] = system: Downy Brome; assay: pre-emergence herbicide test; settings: Bromus tectorum, pre-emergence, 0.25 lb/A; read-out: % plant inhibition
In short: as §1

[9] = system: Giant Foxtail; assay: pre-emergence herbicide test; settings: Setaria faberi, pre-emergence, 0.25 lb/A; read-out: % plant inhibition
In short: as §1

[10] = system: Green Foxtail; assay: pre-emergence herbicide test; settings: Setaria viridis, pre-emergence; 0.25 lb/A; read-out: % plant inhibition
In short: as §1

[11] = system: Morning Glory; assay: pre-emergence herbicide test; settings: Ipomoea, pre-emergence, 0.25 lb/A; read-out: % plant inhibition
In short: as §1

[12] = system: Rape; assay: pre-emergence herbicide test; settings: pre-emergence, 0.25 lb/A; read-out: % plant inhibition
In short: as §1

[13] = system: Seedling Johnsongrass; assay: pre-emergence herbicide test; settings: Sorghum halepense, pre-emergence, 0.25 lb/A; read-out: % plant inhibition
In short: as §1

[14] = system: Soybean; assay: pre-emergence herbicide test; settings: Glycine max, pre-emergence, 0.25 lb/A; read-out: % plant inhibition
In short: as §1

[15] = system: Velvetleaf; assay: pre-emergence herbicide test; settings: Abutilon theophrasti, pre-emergence, 0.25 lb/A; read-out: % plant inhibition
In short: as §1

[16] = system: Wheat; assay: pre-emergence herbicide test; settings: Triticum aestivum, pre-emergence, 0.25 lb/A; read-out: % plant inhibition
In short: as §1

[17] = system: Wild Oats; assay: pre-emergence herbicide test; settings: Avena fatua, pre-emergence, 0.25 lb/A; read-out: % plant inhibition
In short: as §1

[18] = system: Barnyardgrass; assay: post-emergence herbicide test; settings: Echinochloa crus-galli, post-emergence, 0.25 lb/A; read-out: % plant inhibition
In short: (§2)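 Greenhouse pot test: seeds pressed into compacted topsoil in pans, covered, watered as needed; at two to three weeks plants were sprayed by atomizer at 170.3 kPa, 1870 L/Ha, with about 0.4% v/v emulsifier. Value is percent inhibition per species.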

[19] = system: Bedstraw Catchweed; assay: post-emergence herbicide test; settings: Galium aparine, post-emergence, 0.25 lb/A; read-out: % plant inhibition
In short: as §2

[20] = system: Birdseye Speedwell; assay: post-emergence herbicide test; settings: post-emergence, 0.25 lb/A; read-out: % plant inhibition
In short: as §2

[21] = system: Blackgrass; assay: post-emergence herbicide test; settings: Alopecurus myosuroides, post-emergence, 0.25 lb/A; read-out: % plant inhibition
In short: as §2

[22] = system: Cocklebur; assay: post-emergence herbicide test; settings: Xanthium strumarium, post-emergence, 0.25 lb/A; read-out: % plant inhibition
In short: as §2

[23] = system: Common Chickweed; assay: post-emergence herbicide test; settings: post-emergence, 0.25 lb/A; read-out: % plant inhibition
In short: as §2

[24] = system: Corn; assay: post-emergence herbicide test; settings: Zea mays, post-emergence, 0.25 lb/A; read-out: % plant inhibition
In short: as §2

[25] = system: Downy Brome; assay: post-emergence herbicide test; settings: Bromus tectorum, post-emergence, 0.25 lb/A; read-out: % plant inhibition
In short: as §2

[26] = system: Giant Foxtail; assay: post-emergence herbicide test; settings: Setaria faberi, post-emergence, 0.25 lb/A; read-out: % plant inhibition
In short: as §2

[27] = system: Green Foxtail; assay: post-emergence herbicide test; settings: Setaria viridis, post-emergence, 0.25 lb/A; read-out: % plant inhibition
In short: as §2

[28] = system: Morning Glory; assay: post-emergence herbicide test; settings: Ipomoea, post-emergence, 0.25 lb/A; read-out: % plant inhibition
In short: as §2

[29] = system: Rape; assay: post-emergence herbicide test; settings: post-emergence, 0.25 lb/A; read-out: % plant inhibition
In short: as §2

[30] = system: Seedling Johnsongrass; assay: post-emergence herbicide test; settings: Sorghum halepense, post-emergence, 0.25 lb/A; read-out: % plant inhibition
In short: as §2

[31] = system: Soybean; assay: post-emergence herbicide test; settings: Glycine max, post-emergence, 0.25 lb/A; read-out: % plant inhibition
In short: as §2

[32] = system: Velvetleaf; assay: post-emergence herbicide test; settings: Abutilon theophrasti, post-emergence, 0.25 lb/A; read-out: % plant inhibition
In short: as §2

[33] = system: Wheat; assay: post-emergence herbicide test; settings: Triticum aestivum, post-emergence, 0.25 lb/A; read-out: % plant inhibition
In short: as §2

[34] = system: Wild Oats; assay: post-emergence herbicide test; settings: Avena fatua, post-emergence, 0.25 lb/A; read-out: % plant inhibition
In short: as §2

SMILES	inhibition at 280.212 g/ha [1] [%]	inhibition at 280.212 g/ha [2] [%]	inhibition at 280.212 g/ha [3] [%]	inhibition at 280.212 g/ha [4] [%]	inhibition at 280.212 g/ha [5] [%]	inhibition at 280.212 g/ha [6] [%]	inhibition at 280.212 g/ha [7] [%]	inhibition at 280.212 g/ha [8] [%]	inhibition at 280.212 g/ha [9] [%]	inhibition at 280.212 g/ha [10] [%]	inhibition at 280.212 g/ha [11] [%]	inhibition at 280.212 g/ha [12] [%]	inhibition at 280.212 g/ha [13] [%]	inhibition at 280.212 g/ha [14] [%]	inhibition at 280.212 g/ha [15] [%]	inhibition at 280.212 g/ha [16] [%]	inhibition at 280.212 g/ha [17] [%]	inhibition at 280.212 g/ha [18] [%]	inhibition at 280.212 g/ha [19] [%]	inhibition at 280.212 g/ha [20] [%]	further results
COC(=O)CSCc1cc(-c2nn(C)c(C(F)(F)F)c2C)c(F)cc1Cl [Compound 31]	5	30	25	5	15	25	10	5	10	20	45	5	40	3	80	0	5	70	70	100	inhibition at 280.212 g/ha [21]: 20%; inhibition at 280.212 g/ha [22]: 99%; inhibition at 280.212 g/ha [23]: 95%; inhibition at 280.212 g/ha [24]: 50%; inhibition at 280.212 g/ha [25]: 55%; inhibition at 280.212 g/ha [26]: 50%; inhibition at 280.212 g/ha [27]: 75%; inhibition at 280.212 g/ha [28]: 80%; inhibition at 280.212 g/ha [29]: 75%; inhibition at 280.212 g/ha [30]: 90%; inhibition at 280.212 g/ha [31]: 35%; inhibition at 280.212 g/ha [32]: 99%; inhibition at 280.212 g/ha [33]: 20%; inhibition at 280.212 g/ha [34]: 35%
Cc1c(-c2cc(C(=O)OCC(=O)OC(C)C)c(Cl)cc2F)nn(C)c1C(F)(F)F [Compound 23]	40	45	100	15	10	100	0	15	65	85	25	75	30	5	65	0	10	60	50	75	inhibition at 280.212 g/ha [21]: 15%; inhibition at 280.212 g/ha [22]: 90%; inhibition at 280.212 g/ha [23]: 75%; inhibition at 280.212 g/ha [24]: 7%; inhibition at 280.212 g/ha [25]: 25%; inhibition at 280.212 g/ha [26]: 20%; inhibition at 280.212 g/ha [27]: 15%; inhibition at 280.212 g/ha [28]: 65%; inhibition at 280.212 g/ha [29]: 10%; inhibition at 280.212 g/ha [30]: 65%; inhibition at 280.212 g/ha [31]: 30%; inhibition at 280.212 g/ha [32]: 98%; inhibition at 280.212 g/ha [33]: 11%; inhibition at 280.212 g/ha [34]: 20%
Cc1c(-c2ccc(Cl)cc2)nn(C)c1C(F)(F)F [Compound 7, 3-(4-chlorophenyl)-1,4-dimethyl-5-(trifluoromethyl)pyrazole]	0	5	0	0	0	0	0	0	15	0	0	0	25	0	0	0	0	0	35	65	inhibition at 280.212 g/ha [21]: 5%; inhibition at 280.212 g/ha [22]: 0%; inhibition at 280.212 g/ha [23]: 0%; inhibition at 280.212 g/ha [24]: 0%; inhibition at 280.212 g/ha [25]: 5%; inhibition at 280.212 g/ha [26]: 0%; inhibition at 280.212 g/ha [27]: 20%; inhibition at 280.212 g/ha [28]: 0%; inhibition at 280.212 g/ha [29]: 0%; inhibition at 280.212 g/ha [30]: 0%; inhibition at 280.212 g/ha [31]: 5%; inhibition at 280.212 g/ha [32]: 5%; inhibition at 280.212 g/ha [33]: 5%; inhibition at 280.212 g/ha [34]: 5%
